The values that follow come from patent US20260103465A1, “GLYCOGEN SYNTHASE KINASE 3 INHIBITORS AND USES THEREOF” (The Broad Institute, Inc., priority 2023, published 2026).

Like-named read-outs stand apart in the source and are kept apart here. A value given as a limit tells only on which side of the number the result lay.

In experiment [1] the target is T1, GSK3a (GST-full length GSK3a) (Homo sapiens, UniProt P49840).
T1 construct: GST-full length GSK3a [SignalChem G08-10G]; purchased SignalChem G08-10G
As to the kind of experiment: GSK3a TR-FRET kinase inhibition assay. It counts as biochemical. The method in brief:
(§1)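 IC50 derived from normalized 665/615 TR-FRET signal (Tb anti-pSer641 antibody, streptavidin-d2), read after EDTA stop. Reaction: 1 nM GST-full-length enzyme, 30 min compound pre-incubation, 100 min at ambient temperature in Tris pH 7.5 with 1% DMSO, 200 nM biotinylated primed glycogen synthase peptide, ATP 2 μM to 1 mM.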
A general note: TR-FRET usually uses a lanthanide donor and a delayed reading to cut background.

Experiment [2] deals with T2, GSK3b (GST-full length GSK3b) (Homo sapiens, UniProt P49841).
T2 construct: GST-full length GSK3b: [SignalChem G08-9G]; purchased SignalChem G08-9G
Briefly: GSK3b TR-FRET kinase inhibition assay. The format is biochemical. The method in brief:
as §1

Setting [3] is: 1 mM ATP, Table 5, read-out: GSK3α TR-FRET 1 mM ATP Average IC50.
Where [4] appears, read: 1 mM ATP, Table 5, read-out: GSK3β TR-FRET 1 mM ATP Average IC50.
Setting [5] is: 100 μM ATP, read-out: GSK3a 100 μM ATP Average IC50.
[6] abbreviates: 100 μM ATP, read-out: GSK3b 100 μM ATP Average IC50.
Setting [7] is: 1 mM ATP, Table 3, read-out: GSK3a TR-FRET 1 mM ATP Average IC50.
[8] abbreviates: 1 mM ATP, Table 3, read-out: GSK3b TR-FRET 1 mM ATP Average IC50.

T1 sequence (P49840 whole entry): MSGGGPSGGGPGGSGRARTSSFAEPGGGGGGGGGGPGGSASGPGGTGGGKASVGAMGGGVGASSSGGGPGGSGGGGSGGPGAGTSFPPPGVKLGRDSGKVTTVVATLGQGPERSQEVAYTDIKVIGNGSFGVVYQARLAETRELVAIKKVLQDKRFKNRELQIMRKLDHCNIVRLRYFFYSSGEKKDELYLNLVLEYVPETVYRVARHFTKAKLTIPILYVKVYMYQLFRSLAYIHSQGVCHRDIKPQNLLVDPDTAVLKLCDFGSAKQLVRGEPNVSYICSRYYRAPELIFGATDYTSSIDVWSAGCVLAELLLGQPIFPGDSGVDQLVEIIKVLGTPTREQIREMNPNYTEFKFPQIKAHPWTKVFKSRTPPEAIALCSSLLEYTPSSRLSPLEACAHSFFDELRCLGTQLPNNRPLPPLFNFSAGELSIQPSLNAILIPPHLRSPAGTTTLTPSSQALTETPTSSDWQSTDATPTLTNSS
T2 sequence (P49841 whole entry): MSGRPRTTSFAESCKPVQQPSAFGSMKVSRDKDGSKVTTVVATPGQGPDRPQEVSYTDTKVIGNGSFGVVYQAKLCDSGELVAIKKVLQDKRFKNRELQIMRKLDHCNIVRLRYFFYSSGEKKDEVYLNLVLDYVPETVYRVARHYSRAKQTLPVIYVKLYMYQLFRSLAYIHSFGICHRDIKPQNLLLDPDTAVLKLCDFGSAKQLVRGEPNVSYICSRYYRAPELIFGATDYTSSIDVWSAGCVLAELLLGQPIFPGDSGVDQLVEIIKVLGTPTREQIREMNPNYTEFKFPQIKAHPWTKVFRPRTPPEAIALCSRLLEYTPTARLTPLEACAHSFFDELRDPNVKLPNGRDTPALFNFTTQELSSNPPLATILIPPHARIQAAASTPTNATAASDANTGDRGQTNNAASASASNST

In the case of `CC1(C)CC(=O)C2=C(C1)Nc1ncc(F)c(C#N)c1C2(C)c1cccc(-c2ccncc2CC(F)(F)F)c1` (single isomer, unassigned) [656B], the IC50 in experiment [1] (setting [3]) and in experiment [2] (setting [4]) was at most 0.1 µM throughout.

As to `CC1(C)CC(=O)C2=C(C1)Nc1ncc(I)c(Br)c1C2(C)c1ccccc1` (single isomer, unassigned) [657A], the half-maximal inhibitory concentration (IC50) in experiment [1] (setting [3]) and in experiment [2] (setting [4]) was 5 to 20 µM each time.

Take `CC1(C)CC(=O)C2=C(C1)Nc1ncc(I)c(Br)c1C2(C)c1ccccc1` (single isomer, unassigned) [657B]: the IC50 was in the range of 5 to 20 µM in experiment [1] (setting [3]) and 1 to 5 µM in experiment [2] (setting [4]).

On to `CC1(C)CC(=O)C2=C(C1)Nc1ncccc1C2(C)c1ccccc1` (single isomer, unassigned) [Compound 101B], for which the IC50 in experiment [1] (10 μM ATP, read-out: GSK3a 10 μM ATP Average IC50) lay in the range of 5 to 20 µM; in experiment [1] (setting [5]) it was 20 to 60 µM; in experiment [2] (10 μM ATP, read-out: GSK3b 10 μM ATP Average IC50), 1 to 5 µM; in experiment [2] (setting [6]), 20 to 60 µM.

Turning to `Cc1ccnc2c1C(C)(c1ccccc1)C1=C(CC(C)(C)CC1=O)N2` (single isomer, unassigned) [Compound 104A], the 50% inhibitory concentration (IC50) in experiment [1] (setting [5]) was at most 0.1 µM; in experiment [1] (setting [7]), 1 to 5 µM; in experiment [2] (setting [6]), 0.1 to 1 µM; in experiment [2] (setting [8]), 1 to 5 µM.

Regarding `CC1(C)CC(=O)C2=C(C1)Nc1nccc(F)c1C2(C)c1ccccc1` (single isomer, unassigned) [Compound 105B], the 50% inhibitory concentration (IC50) in experiment [1] (setting [7]) and in experiment [2] (setting [8]) was 1 to 5 µM throughout.

As to `CC1(C)CC(=O)C2=C(C1)Nc1ncc(C#N)cc1C2(C)c1ccccc1` (single isomer, unassigned) [Compound 109A], the IC50 in experiment [1] (setting [7]) and in experiment [2] (setting [8]) was 1 to 5 µM in each case.

Consider `CC1(C)CC(=O)C2=C(C1)Nc1ncc(C#N)cc1C2(C)c1ccccc1` (single isomer, unassigned) [Compound 109B], for which the IC50 in experiment [1] (setting [7]) and in experiment [2] (setting [8]) was 5 to 20 µM each time.

As to `C=Cc1ccnc2c1C(C)(c1ccccc1)C1=C(CC(C)(C)CC1=O)N2` (single isomer, unassigned) [Compound 111A], the 50% inhibitory concentration (IC50) in experiment [1] (setting [5]) is at most 0.1 µM; in experiment [1] (setting [7]), 0.1 to 1 µM; in experiment [2] (setting [6]), at most 0.1 µM; in experiment [2] (setting [8]), 0.1 to 1 µM.

On to `CCc1ccnc2c1C(C)(c1ccccc1)C1=C(CC(C)(C)CC1=O)N2` (single isomer, unassigned) [Compound 112A], for which the IC50 in experiment [1] (setting [5]) was at most 0.1 µM; in experiment [1] (setting [7]), 1 to 5 µM; in experiment [2] (setting [6]), at most 0.1 µM; in experiment [2] (setting [8]), 1 to 5 µM.

Consider `CCc1cnc2c(c1)C(C)(c1ccccc1)C1=C(CC(C)(C)CC1=O)N2` (single isomer, unassigned) [Compound 113A], for which the IC50 in experiment [1] (setting [5]) lay in the range of 1 to 5 µM; in experiment [2] (setting [6]), 0.1 to 1 µM; in experiment [2] (setting [8]), 1 to 5 µM.

With `CC1(C)CC(=O)C2=C(C1)Nc1ncc(F)c(F)c1C2(C)c1ccccc1` (single isomer, unassigned) [Compound 116B], the IC50 in experiment [1] (setting [7]) and in experiment [2] (setting [8]) was 0.1 to 1 µM in each case.

Regarding `CC1(C)CC(=O)C2=C(C1)Nc1ncc(C3CC3)cc1C2(C)c1ccccc1` (single isomer, unassigned) [Compound 117A], the half-inhibitory concentration (IC50) in experiment [1] (setting [5]) was 0.1 to 1 µM; in experiment [1] (setting [7]), 5 to 20 µM; in experiment [2] (setting [6]), 0.1 to 1 µM; in experiment [2] (setting [8]), 1 to 5 µM.

In the case of `CC1(C)CC(=O)C2=C(C1)Nc1ncc3c(c1C2(C)c1ccccc1)CCC3` (single isomer, unassigned) [Compound 118B], the half-inhibitory concentration (IC50) in experiment [1] (setting [7]) and in experiment [2] (setting [8]) was 1 to 5 µM in each case.

Regarding `CC(C)c1cnc2c(c1)C(C)(c1ccccc1)C1=C(CC(C)(C)CC1=O)N2` (single isomer, unassigned) [Compound 119A], the half-maximal inhibitory concentration (IC50) fell in the range of 0.1 to 1 µM in experiment [1] (setting [5]), 5 to 20 µM in experiment [1] (setting [7]), 0.1 to 1 µM in experiment [2] (setting [6]) and 1 to 5 µM in experiment [2] (setting [8]).

For `CC(C)c1ccnc2c1C(C)(c1ccccc1)C1=C(CC(C)(C)CC1=O)N2` (single isomer, unassigned) [Compound 120A], the IC50 was 1 to 5 µM in experiment [1] (setting [7]) and 0.1 to 1 µM in experiment [2] (setting [8]).

As for `CC1(C)CC(=O)C2=C(C1)Nc1ncc(F)c(C#N)c1C2(C)c1ccccc1` (single isomer, unassigned) [Compound 121B], the IC50 in experiment [1] (setting [7]) and in experiment [2] (setting [8]) was 1 to 5 µM in each case.

`CC1(C)CC(=O)C2=C(C1)Nc1ncc(C3CCC3)cc1C2(C)c1ccccc1` (single isomer, unassigned) [Compound 122A]: the concentration for half-maximal inhibition (IC50) in experiment [1] (setting [5]) lay in the range of 1 to 5 µM; in experiment [2] (setting [6]), 1 to 5 µM; in experiment [2] (setting [8]) it was 5 to 20 µM.

Turning to `CC1(C)CC(=O)C2=C(C1)Nc1nccc(CC3CC3)c1C2(C)c1ccccc1` (single isomer, unassigned) [Compound 123A], the half-inhibitory concentration (IC50) in experiment [1] (setting [7]) and in experiment [2] (setting [8]) was 1 to 5 µM in each case.

As to `CC1(C)CC(=O)C2=C(C1)Nc1nccc(CC3CC3)c1C2(C)c1ccccc1` (single isomer, unassigned) [Compound 123B], the IC50 in experiment [1] (setting [7]) and in experiment [2] (setting [8]) was 1 to 5 µM each time.

In the case of `CC1(C)CC(=O)C2=C(C1)Nc1ncc(C(C)(C)C)cc1C2(C)c1ccccc1` (single isomer, unassigned) [Compound 124A], the 50% inhibitory concentration (IC50) in experiment [1] (setting [5]), in experiment [1] (setting [7]), in experiment [2] (setting [6]) and in experiment [2] (setting [8]) was 5 to 20 µM in each case.

With `CC1(C)CC(=O)C2=C(C1)Nc1ncc(C(C)(C)C)cc1C2(C)c1ccccc1` (single isomer, unassigned) [Compound 124B], the IC50 in experiment [1] (setting [7]) and in experiment [2] (setting [8]) was 5 to 20 µM throughout.

As for `CC1(C)CC(=O)C2=C(C1)Nc1ncc(F)c(C3CC3)c1C2(C)c1ccccc1` (single isomer, unassigned) [Compound 125A], the 50% inhibitory concentration (IC50) in experiment [1] (setting [7]) and in experiment [2] (setting [8]) was 0.1 to 1 µM each time.

On to `CC1(C)CC(=O)C2=C(C1)Nc1ncc(F)c(C3CC3)c1C2(C)c1ccccc1` (single isomer, unassigned) [Compound 125B], for which the IC50 in experiment [1] (setting [7]) and in experiment [2] (setting [8]) was 1 to 5 µM each time.

Turning to `CC1(C)CC(=O)C2=C(C1)Nc1nccc(C(F)(F)F)c1C2(C)c1ccccc1` (single isomer, unassigned) [Compound 127B], the IC50 in experiment [1] (setting [7]) and in experiment [2] (setting [8]) was 5 to 20 µM in each case.

On to `CC1(C)CC(=O)C2=C(C1)Nc1ncc(C(F)(F)F)cc1C2(C)c1ccccc1` (single isomer, unassigned) [Compound 128A], for which the values for the IC50 in experiment [1] (setting [7]) and in experiment [2] (setting [8]) were 5 to 20 µM and 1 to 5 µM, respectively.

Consider `CC1(C)CC(=O)C2=C(C1)Nc1ncccc1C2(C)c1cccc(-c2ccncc2)c1` (single isomer, unassigned) [Compound 131B], for which the half-inhibitory concentration (IC50) in experiment [1] (setting [7]) and in experiment [2] (setting [8]) was 1 to 5 µM in each case.

For the compound `CC1(C)CC(=O)C2=C(C1)Nc1nccc(CC(F)(F)F)c1C2(C)c1ccccc1` (single isomer, unassigned) [Compound 132A], the IC50 in experiment [1] (setting [7]) and in experiment [2] (setting [8]) was 1 to 5 µM throughout.

`CC1(C)CC(=O)C2=C(C1)Nc1nccc(CC(F)(F)F)c1C2(C)c1ccccc1` (single isomer, unassigned) [Compound 132B]: the concentration for half-maximal inhibition (IC50) was 5 to 20 µM in experiment [1] (setting [7]) and 1 to 5 µM in experiment [2] (setting [8]).

For `CC1(C)CC(=O)C2=C(C1)Nc1ncc(F)c(C(F)(F)F)c1C2(C)c1ccccc1` (single isomer, unassigned) [Compound 135A], the concentration for half-maximal inhibition (IC50) in experiment [1] (setting [7]) and in experiment [2] (setting [8]) was 0.1 to 1 µM in each case.

`CC1(C)CC(=O)C2=C(C1)Nc1ncc(F)c(C(F)(F)F)c1C2(C)c1ccccc1` (single isomer, unassigned) [Compound 135B]: the IC50 in experiment [1] (setting [7]) was 5 to 20 µM; in experiment [2] (setting [8]), 1 to 5 µM.

In the case of `CC1(C)CC(=O)C2=C(C1)Nc1ncc(C(F)(F)F)c(F)c1C2(C)c1ccccc1` (single isomer, unassigned) [Compound 136A], the IC50 in experiment [1] (setting [7]) and in experiment [2] (setting [8]) was 5 to 20 µM each time.

With `CC1(C)CC(=O)C2=C(C1)Nc1ncc(C(F)(F)F)c(F)c1C2(C)c1ccccc1` (single isomer, unassigned) [Compound 136B], the IC50 in experiment [1] (setting [7]) and in experiment [2] (setting [8]) was 5 to 20 µM each time.

With `CC1(C)CC(=O)C2=C(C1)Nc1ncc(C(F)(F)F)c(C#N)c1C2(C)c1ccccc1` (single isomer, unassigned) [Compound 137A], the IC50 in experiment [1] (setting [7]) fell in the range of 1 to 5 µM; in experiment [2] (setting [8]), 0.1 to 1 µM.

With `CC1(C)CC(=O)C2=C(C1)Nc1ncc(C(F)(F)F)c(C#N)c1C2(C)c1ccccc1` (single isomer, unassigned) [Compound 137B], the IC50 in experiment [1] (setting [7]) and in experiment [2] (setting [8]) was 1 to 5 µM each time.

Regarding `CC1(C)CC(=O)C2=C(C1)Nc1ncc(F)cc1C2(C)c1cccc(S(C)(=O)=O)c1` (single isomer, unassigned) [Compound 139B], the 50% inhibitory concentration (IC50) in experiment [1] (setting [7]) and in experiment [2] (setting [8]) was 5 to 20 µM each time.

Regarding `CC1(C)CC(=O)C2=C(C1)Nc1ncc(Br)c(F)c1C2(C)c1ccccc1` (single isomer, unassigned) [Compound 140A], the half-maximal inhibitory concentration (IC50) in experiment [1] (setting [7]) is 1 to 5 µM; in experiment [2] (setting [8]), 0.1 to 1 µM.

`CC1(C)CC(=O)C2=C(C1)Nc1ncc(Br)c(F)c1C2(C)c1ccccc1` (single isomer, unassigned) [Compound 140B]: the IC50 in experiment [1] (setting [7]) and in experiment [2] (setting [8]) was 5 to 20 µM in each case.

For `CC1(C)CC(=O)C2=C(C1)Nc1ncc(C(F)(F)F)c(Cl)c1C2(C)c1ccccc1` (single isomer, unassigned) [Compound 141A], the IC50 in experiment [1] (setting [7]) was in the range of 5 to 20 µM; in experiment [2] (setting [8]) it was 1 to 5 µM.

What is called IC50 is the point on the concentration scale where inhibition reaches its midpoint.
